This passage reports relative viability results from the supplement of paper PMC10307832.

Assay in all cases: relative viability (nuclei count vs DMSO), 5 days (fraction); higher = more cells survive
Compound in assay [1]: Cn1c(=O)n(-c2ccc(C(C)(C)C#N)cc2)c2c3cc(-c4cnc5ccccc5c4)ccc3ncc21 [Dactolisib] + CCNC(=O)c1noc(-c2cc(C(C)C)c(O)cc2O)c1-c1ccc(CN2CCOCC2)cc1 [Luminespib] (partner 0.01 µM)
The essentials:
(§1)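 Cells from lung cancer lines were seeded into 1536-well plates and, one day later, dosed by pin tool. Treatments were either a single drug or a fixed dose of an anchor drug with five library-drug doses (not always all listed) in √10 steps. After 5 days, nuclei were stained in a one-step fixation (final 0.05% Triton X-100, 1% formaldehyde, 1 ug/ml Hoechst) and counted on 4× images, and relative viability is the treated-to-vehicle nuclei ratio, as the median of duplicate plates.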

Compound in assay [2]: Cn1c(=O)n(-c2ccc(C(C)(C)C#N)cc2)c2c3cc(-c4cnc5ccccc5c4)ccc3ncc21 [Dactolisib] + CS(=O)(=O)CCNCc1ccc(-c2ccc3ncnc(Nc4ccc(OCc5cccc(F)c5)c(Cl)c4)c3c2)o1 [Lapatinib] (partner 2 µM)
The essentials: as §1

Compound in assay [3]: C1CCC(CC1)N(CCNCCC2=C3C(=C(C=C2)O)NC(=O)CO3)C(=O)CCNCCC4=CC(=C(C=C4)Cl)Cl [AZ505] + CCNC(=O)c1noc(-c2cc(C(C)C)c(O)cc2O)c1-c1ccc(CN2CCOCC2)cc1 [Luminespib] (partner 0.01 µM)
The essentials: as §1

Compound in assay [4]: Cn1c(=O)n(-c2ccc(C(C)(C)C#N)cc2)c2c3cc(-c4cnc5ccccc5c4)ccc3ncc21 [Dactolisib] + CC(=O)Nc1cccc(-n2c(=O)n(C3CC3)c(=O)c3c(Nc4ccc(I)cc4F)n(C)c(=O)c(C)c32)c1 [Trametinib] (partner 0.02 µM)
The essentials:
as §1

For the cell line UMC-11, the relative viability in assay [1] (first compound 0.002 µM) was determined as 1.1; in assay [1] (first compound 0.006325 µM) it was 0.781; in assay [1] (first compound 0.02 µM), 0.737; in assay [1] (first compound 0.06325 µM), 0.261; in assay [1] (first compound 0.2 µM) it was 0.224; in assay [2] (first compound 0.002 µM), 0.863. Also, the relative viability in assay [2] (first compound 0.006325 µM) turned out to be 0.788; in assay [2] (first compound 0.02 µM), 0.78; in assay [2] (first compound 0.06325 µM), 0.316; in assay [2] (first compound 0.2 µM) it was 0.272; in assay [3] (first compound 0.08 µM), 1.05; in assay [3] (first compound 0.253 µM) it was 1.04. The relative viability in assay [3] (first compound 0.8 µM) turned out to be 0.996; in assay [3] (first compound 2.53 µM) it was 1.01; in assay [3] (first compound 8 µM), 1.03; in assay [4] (first compound 0.002 µM), 0.642; in assay [4] (first compound 0.006325 µM), 0.637; in assay [4] (first compound 0.02 µM), 0.578. Also, the values for the relative viability in assay [4] (first compound 0.06325 µM) and in assay [4] (first compound 0.2 µM) were 0.282 and 0.2, respectively.
